Reference: publication PMC6683251, “Flavanol Bioavailability in Two Cocoa Products with Different Phenolic Content. A Comparative Study in Humans” (Nutrients, 2019)
Like-named read-outs stand apart in the source and are kept apart here.

Key:
[1] = Plasma nutrikinetics of flavanol metabolites after a single serving of soluble cocoa product (HPLC-ESI-QToF-MS); type: in vivo, human; details: for Detection of un-metabolized compound in the collected biological fluids: plasma and urine, CC and CC-PP; for AUC: human plasma 0-8 h; for AUC / Tmax / Cmax: mean ± SD, n = 13; for Tmax / Cmax: human plasma; for Cmax: read-out: Cmax
Procedure: The study was carried out in thirteen healthy subjects (3 men and 10 women); the mens’ average age and body mass index were 26.67 ± 3.21 year and 22.47 ± 2.97 kg/m^2, respectively, and womens’ were 32.60 ± 9.85 year and 23.36 ± 3.73 kg/m^2, respectively. They were non-smoker, non-vegetarian, non-pregnant women, who were not taking any medication or nutritional supplements, and were not suffering from any chronic pathology or gastrointestinal disorder. The sample size was estimated attending to similar previous bioavailability studies. The volunteers gave their informed consent prior to participation.
(§1) The present randomized, single-blind study was carried out at the Human Nutrition Unit (HNU) of the Institute of Food Science, Technology and Nutrition (ICTAN). Volunteers attended the HNU on two days, separated by two weeks. Three days previous to each visit, participants were instructed not to consume cocoa products (chocolate, soluble cocoa, etc.), juices, tea, wine, grape must, oranges, tangerines, apples, grapes, strawberries or other berries, beets, onions, soybeans and soy derivatives. In addition, volunteers were asked to complete a 24 h food intake recall the day before they attended the HNU in order to monitor any possible food restriction incompliance.
On each intervention day, volunteers arrived at the HNU after an overnight fast. Prior to the intake of the soluble cocoa product, a nurse inserted a cannula in the cubital vein of the non-prevailing arm of the volunteers and blood samples were collected into EDTA-coated tubes at baseline (t = 0) and 0.5, 1, 2, 3, 4, 6, and 8 h after consuming the corresponding cocoa product. The soluble cocoa products, either 15 g of CC or 25 g CC-PP, were dissolved in 200 mL of semi-skimmed milk following manufacturer’s preparation instructions. Plasma was separated by centrifugation (10 min, 3000 rpm, 4 °C) and stored at −80 °C until further analysis. Urine samples were collected at different time intervals (t = −2–0, 0–4, 4–8, 8–12, and 12–24 h) in urine collection flasks that contained 0.5 g of ascorbic acid as preservative and were aliquoted and frozen at −20 °C until analysis. A polyphenol-free breakfast, lunch and afternoon snack were provided 2 h, 4 h, and 8 h after consumption of cocoa products, and water and isotonic beverages were available ad libitum.
A liquid–liquid extraction and protein precipitation with acetonitrile was used to isolate metabolites from plasma. A 1 mL defrosted plasma sample was mixed with 50 μL of ascorbic acid (0.2 g/mL). After vortexing the aqueous mixture, it was added drop wise to 750 μL of cold acetonitrile and vortexed for 2 min before centrifuging at 12,000 rpm for 10 min at 4 °C. The supernatant was separated, and the pellet was re-extracted twice more following the same procedure. Supernatants were combined and reduced to dryness under a stream of nitrogen at 30 °C. The dried samples were resuspended in 150 μL of aqueous formic acid (0.1%) containing 10% acetonitrile acidified with 0.1% formic acid and centrifuged at 4 °C for 20 min at 14,000 rpm. The final supernatant was collected, filtered (0.45 μm pore-size, cellulose-acetate membrane filters, Albet, Dassel (Germany)) and 30 μL were analyzed by high-performance liquid chromatography coupled to electrospray ionisation and quadrupole time-of-flight mass spectrometry (HPLC-ESI-QToF-MS).
Analyses were performed on an Agilent 1200 series LC system coupled to an Agilent 6530A Accurate-Mass Quadrupole Time-Of-Flight (Q-ToF) with ESI-Jet Stream Technology (Agilent Technologies). Compounds were separated on a reverse-phase Ascentis Express C18 (15 cm × 3 mm, […]) column (Sigma-Aldrich Química, Madrid) preceded by a Supelco 55215-U guard column at 30 °C. […]

[2] = Urinary excretion of flavanol metabolites (0-24 h) after a single serving of soluble cocoa product (HPLC-ESI-QToF-MS); type: in vivo, human; details: for Excreted in urine, Basal: basal urine (−2–0 h, before intake); for Excreted in urine, Basal / Excreted in urine, Total / Excreted in urine, 0–4 h / Excreted in urine, 4–8 h / Excreted in urine, 8–12 h / Excreted in urine, 12–24 h: mean ± SD, n = 13; for Excreted in urine, Total: 24 h urine
Procedure: They were non-smoker, non-vegetarian, non-pregnant women, who were not taking any medication or nutritional supplements, and were not suffering from any chronic pathology or gastrointestinal disorder. The sample size was estimated attending to similar previous bioavailability studies. The volunteers gave their informed consent prior to participation.
as §1, with “derivatives.” for “derivatives. In addition, volunteers were asked to complete a 24 h food intake recall the day before they attended the HNU in order to monitor any possible food restriction incompliance.”
On each intervention day, volunteers arrived at the HNU after an overnight fast. […] The soluble cocoa products, either 15 g of CC or 25 g CC-PP, were dissolved in 200 mL of semi-skimmed milk following manufacturer’s preparation instructions. Plasma was separated by centrifugation (10 min, 3000 rpm, 4 °C) and stored at −80 °C until further analysis. […] A polyphenol-free breakfast, lunch and afternoon snack were provided 2 h, 4 h, and 8 h after consumption of cocoa products, and water and isotonic beverages were available ad libitum.
Urine samples were diluted with an equivalent volume of Milli-Q water (50%) and centrifuged at 14000 rpm (10 min, 4 °C). Supernatants were filtered (0.45 μm pore-size cellulose-acetate membrane filters) and a 5 µL aliquot was directly injected into the LC-ESI-QToF-MS equipment.
The test samples, either 30 μL of the plasma extract or 5 μL of diluted urine, were injected and separated using a mobile phase consisting of Milli-Q water (phase A) and acetonitrile (phase B), both containing 0.1% formic acid, at a flow rate of 0.3 mL/min. The mobile phase was initially programmed with 90% of solvent A and 10% of B. The elution program increased to 30% of solvent B in 10 min. Then, the initial conditions (10% solvent B) were recovered in 5 min and maintained for 5 min.
Due to the lack of standards for certain phase II metabolites, they were tentatively quantified using the calibration curves of their corresponding phenolic precursors. […] The rest of microbial metabolites identified, derivatives of hydroxyphenylpropionic, hydroxyphenylacetic, hydroxybenzoic and hippuric acids, were quantified using their respective commercially available standards. Urine concentration of the excreted metabolites was normalized by the volume excreted in each studied interval. […] Calibration curves were freshly prepared in a pool of both plasma and urine due to matrix effects.
Statistical analyses were carried out using the program SPSS (version 23.0, SPSS, Inc., IBM Company, New York, NY, USA). Significant differences between metabolites excreted in urine after consumption of CC and CC-PP cocoa products were evaluated based on non-parametric Wilcoxon test (p < 0.05). To determine the absorption and elimination of epicatechin metabolites after consumption of the soluble cocoa products, metabolite nutrikinetics were studied using the pharmacokinetic functions of Microsoft Excel, calculating the maximum concentration (Cmax), area under curve (AUC) and time to reach maximum concentration (Tmax). Data are expressed as mean ± standard deviation.

[3] = both sexes, oral, after CC-PP (68.25 mg flavanols), read-out: AUC
[4] = both sexes, oral, after CC-PP (68.25 mg flavanols), read-out: Tmax
[5] = both sexes, oral, after CC-PP (25 g in 200 mL semi-skimmed milk, 68.25 mg flavanols)
[6] = after CC-PP (68.25 mg flavanols)

Compound | Detection of un-metabolized compound in the collected biological fluids [1] | Excreted in urine, Total ([2]; after CC (19.80 mg flavanols)) | Excreted in urine, 0–4 h ([2]; after CC (19.80 mg flavanols)) | Excreted in urine, 4–8 h ([2]; after CC (19.80 mg flavanols)) | Excreted in urine, 8–12 h ([2]; after CC (19.80 mg flavanols)) | Excreted in urine, 12–24 h ([2]; after CC (19.80 mg flavanols)) | Excreted in urine, Total [2, 6] | Excreted in urine, 0–4 h [2, 6] | Excreted in urine, 4–8 h [2, 6] | Excreted in urine, 8–12 h [2, 6] | Excreted in urine, 12–24 h [2, 6] | other results
Oc1cc(O)c2c(c1)O[C@H](c1ccc(O)c(O)c1)[C@H](O)[C@H]2c1c(O)cc(O)c2c1O[C@H](c1ccc(O)c(O)c1)[C@@H](O)C2 [procyanidins B1, procyanidin B1] | Neither un-metabolized epicatechin and catechin nor procyanidins B1 and B2 were detected | – | – | – | – | – | – | – | – | – | – | –
Oc1cc(O)c2c(c1)O[C@H](c1ccc(O)c(O)c1)[C@H](O)[C@H]2c1c(O)cc(O)c2c1O[C@H](c1ccc(O)c(O)c1)[C@H](O)C2 [PB2 dimer, procyanidin B2] | Neither un-metabolized epicatechin and catechin nor procyanidins B1 and B2 were detected | – | – | – | – | – | – | – | – | – | – | Detection of un-metabolized compound in urine ([2]; any of the interventions (CC, CC-PP)): Neither epicatechin nor PB2 dimer was detected in urine
O=C1CCC(Cc2ccc(O)c(O)c2)O1 (stereo not drawn) [DHPVL, 5-(3′,4′-Dihydroxyphenyl)-γ-valerolactone] | – | 0.146 ± 0.032 µmol | <L.Q. | 0.146 ± 0.032 µmol | <L.Q. | <L.Q. | 1.084 ± 0.199 µmol | <L.Q. | 0.628 ± 0.087 µmol | 0.174 ± 0.029 µmol | 0.282 ± 0.082 µmol | AUC ([1]; both sexes, oral, 19.8 mg, after CC (19.80 mg flavanols), read-out: AUC): 0.124 ± 0.073 µM·h; Tmax ([1]; both sexes, oral, 19.8 mg, after CC (19.80 mg flavanols), read-out: Tmax): 6 ± 1.6 h; AUC [1, 3]: 0.192 ± 0.029 µM·h; Cmax ([1]; both sexes, oral, after CC (15 g in 200 mL semi-skimmed milk, 19.80 mg flavanols)): 35 ± 8 nM; Tmax [1, 4]: 5.5 ± 1.4 h; Cmax [1, 5]: 37 ± 7 nM; Excreted in urine, Basal ([2]; CC intervention): <L.Q.; Excreted in urine, Basal ([2]; CC-PP intervention): <L.Q.
COc1cc([C@H]2Oc3cc(OS(=O)(=O)O)cc(O)c3C[C@H]2O)ccc1O (single isomer, unassigned) [Epicatechin-methoxy-sulfate (isomer 2), Epicatechin-methoxy-sulfate] | – | 0.428 ± 0.062 µmol | 0.181 ± 0.032 µmol | 0.247 ± 0.030 µmol | <L.Q. | <L.Q. | 1.200 ± 0.293 µmol | 0.566 ± 0.152 µmol | 0.557 ± 0.120 µmol | 0.077 ± 0.021 µmol | <L.Q. | AUC [1, 3]: 0.145 ± 0.107 µM·h; Tmax [1, 4]: 1.3 ± 0.5 h; Cmax [1, 5]: 41 ± 4 nM
5-Phenyl-γ-valerolactone-methoxy-glucuronide [PVL-methoxy-glucuronide] | – | – | – | – | – | – | – | – | – | – | – | AUC ([1]; after CC (19.80 mg flavanols)): 0.078 ± 0.032; AUC [1, 6]: 0.091 ± 0.059; Tmax ([1]; after CC (19.80 mg flavanols)): 5.3 ± 1.0 h; Cmax ([1]; after CC (15 g in 200 mL semi-skimmed milk, 19.80 mg flavanols)): 22 ± 1 nM; Tmax [1, 6]: 5.6 ± 1.3 h; Cmax ([1]; after CC-PP (25 g in 200 mL semi-skimmed milk, 68.25 mg flavanols)): 27 ± 3 nM
4-Hydroxy-5-(hydroxyphenyl)valeric acid-glucuronide [HHPVA-glucuronide] | – | – | – | – | – | – | 1.052 ± 0.182 µmol | <L.Q. | 0.714 ± 0.088 µmol | 0.087 ± 0.019 µmol | 0.251 ± 0.075 µmol | –
O.Oc1cc(O)c2c(c1)O[C@H](c1ccc(O)c(O)c1)[C@@H](O)C2 [catechin] | Neither un-metabolized epicatechin and catechin nor procyanidins B1 and B2 were detected | – | – | – | – | – | – | – | – | – | – | –
O=C1CCC(Cc2cccc(OC3OC(C(=O)O)C(O)C(O)C3O)c2)O1 (stereo not drawn) [PVL-3′glucuronide, 5-Phenyl-γ-valerolactone-3′-glucuronide] | – | 0.438 ± 0.255 µmol | <L.Q. | 0.233 ± 0.155 µmol | 0.126 ± 0.078 µmol | 0.079 ± 0.022 µmol | 1.316 ± 0.648 µmol | 0.108 ± 0.045 µmol | 0.521 ± 0.191 µmol | 0.179 ± 0.063 µmol | 0.508 ± 0.349 µmol | Excreted in urine, Basal ([2]; CC-PP intervention): <L.Q.
O=C(O)CCC(O)Cc1ccc(O)c(O)c1 (stereo not drawn) [HDHPVA, 4-Hydroxy-5-(3′,4′-dihydroxyphenyl)valeric acid] | – | <L.Q. | – | <L.Q. | <L.Q. | <L.Q. | <L.Q. | <L.Q. | <L.Q. | <L.Q. | <L.Q. | –
